From patent US11591351B2, “Benzyl compound” (priority 2015, dated 2023)
In brackets after ≈: the same amount, converted by molar mass.

Conditions: 25° C.; for solubility enhanced versus unprotected H-Gly-Gly-Gly-OH: CPME, relative to H-Gly-Gly-Gly-OH

Row | Structure (SMILES) | solubility in cyclopentyl methyl ether (CPME) | solubility enhanced versus unprotected H-Gly-Gly-Gly-OH
1 | CC(C)[Si](OCC(CO[Si](C(C)C)(C(C)C)C(C)C)(CO[Si](C(C)C)(C(C)C)C(C)C)NC(=O)CCCCCCCCCCOc1ccc(COC(=O)CNC(=O)CNC(=O)CN)c(OCCCCCCCCCCC(=O)NC(CO[Si](C(C)C)(C(C)C)C(C)C)(CO[Si](C(C)C)(C(C)C)C(C)C)CO[Si](C(C)C)(C(C)C)C(C)C)c1)(C(C)C)C(C)C [H-Gly-Gly-Gly-O-TIPS6] | 286 mM (≈ 522 mg/mL) | about 9,000 fold
2 | CC(C)[Si](OCCCCCCCCCCCOc1ccc(COC(=O)CNC(=O)CNC(=O)CN)c(OCCCCCCCCCCCO[Si](C(C)C)(C(C)C)C(C)C)c1)(C(C)C)C(C)C [H-Gly-Gly-Gly-O-TIPS2] | 181 mM (≈ 175 mg/mL) | about 5,000 fold
